Data on 16 molecules can be found in ChEMBL document CHEMBL3120164, “1,2,3,4-Tetrahydrobenzo[h][1,6]naphthyridines as a new family of potent peripheral-to-midgorge-site inhibitors of acetylcholinesterase: synthesis, pharmacological evaluation and mechanistic studies” (Eur J Med Chem, 2014).

Active and inactive are the calls of the source. No cut-off for these calls is given here.

Series [1] deals with Amyloid-beta precursor protein (Homo sapiens) (UniProt P05067). The series is described as follows: Inhibition of amyloid beta (1 to 42) aggregation (unknown origin) at 10 uM relative to control.
Series [2] has as its target T1, Acetylcholinesterase (Homo sapiens, UniProt P22303). As to the kind of experiment: Inhibition of human recombinant AChE using acetylthiocholine iodide as substrate preincubated for 20 mins followed by substrate addition by Ellman's method. For orientation: In Ellman's method for cholinesterases, released thiocholine reacts with DTNB.
For series [3], the target named is T2, Acetylcholinesterase (Electrophorus electricus, UniProt O42275).
Description: Inhibition of electric eel AChE using acetylthiocholine iodide as substrate preincubated for 20 mins followed by substrate addition measured after 5 mins by Ellman's method
A further series is described as follows: in vitro. Conditions: PAMPA.
The target in series [4] is T3, Cholinesterase (Homo sapiens, UniProt P06276). The series is described as follows: Inhibition of human serum BChE using butyrylthiocholine iodide as substrate preincubated for 20 mins followed by substrate addition measured after 5 mins by Ellman's method.
The target in series [5] is T3, Cholinesterase. As to the kind of experiment: Inhibition of human serum BChE using butyrylthiocholine iodide as substrate at 30 uM preincubated for 20 mins followed by substrate addition measured after 5 mins by Ellman's method relative to control.
The target of series [6] is T1, Acetylcholinesterase. As to the kind of experiment: Inhibition of human recombinant AChE using acetylthiocholine iodide as substrate at 25 uM preincubated for 20 mins followed by substrate addition by Ellman's method relative to control.
Series [7] has as its target T1, Acetylcholinesterase. As to the kind of experiment: Mixed-type inhibition of human recombinant AChE using acetylthiocholine iodide as substrate by Cornish-Bowden plot analysis.
The target of series [8] is T1, Acetylcholinesterase. As to the kind of experiment: Mixed-type inhibition of human recombinant AChE using acetylthiocholine iodide as substrate assessed as enzyme-inhibitor complex by Lineweaver-Burk plot analysis.
In series [9] the target is Acetylcholinesterase (Electrophorus electricus) (UniProt O42275). The series is described as follows: Displacement of propidium from electric eel AChE peripheral anionic site assessed as decrease in fluorescence intensity at 1/1 propidium to compound ratio by spectrofluorometric analysis relative to control. The conditions noted are these: concentration not given here.

Series [10] has as its target T1, Acetylcholinesterase. The series is described as follows: Mixed-type inhibition of human recombinant AChE using acetylthiocholine iodide as substrate assessed as enzyme-substrate-inhibitor complex by Lineweaver-Burk plot analysis.
The target of series [11] is Acetylcholinesterase (Electrophorus electricus) (UniProt O42275). As to the kind of experiment: Inhibition of electric eel AChE using acetylthiocholine iodide as substrate at 30 uM preincubated for 20 mins followed by substrate addition measured after 5 mins by Ellman's method relative to control.
For series [12] the target is unchanged. The series is described as follows: Binding affinity to electric eel AChE peripheral anionic site assessed as concentration required for decreasing initial fluorescence intensity of AChE-propidium complex by spectrofluorometric analysis.
Series [13] shares this target. The series is described as follows: (§1) Displacement of propidium from electric eel AChE peripheral anionic site assessed as decrease in fluorescence intensity by spectrofluorometric analysis.
Series [14] has as its target T2, Acetylcholinesterase. Described as §1.
Series [15] concerns the target T1, Acetylcholinesterase. The series is described as follows: Ratio of propidium IC50 to compound IC50 for human recombinant AChE.
The target of series [16] is T1, Acetylcholinesterase. As to the kind of experiment: Ratio of tacrine IC50 to compound IC50 for human recombinant AChE.

Sequence of Acetylcholinesterase (Electrophorus electricus) (O42275 24-633 limits assumed): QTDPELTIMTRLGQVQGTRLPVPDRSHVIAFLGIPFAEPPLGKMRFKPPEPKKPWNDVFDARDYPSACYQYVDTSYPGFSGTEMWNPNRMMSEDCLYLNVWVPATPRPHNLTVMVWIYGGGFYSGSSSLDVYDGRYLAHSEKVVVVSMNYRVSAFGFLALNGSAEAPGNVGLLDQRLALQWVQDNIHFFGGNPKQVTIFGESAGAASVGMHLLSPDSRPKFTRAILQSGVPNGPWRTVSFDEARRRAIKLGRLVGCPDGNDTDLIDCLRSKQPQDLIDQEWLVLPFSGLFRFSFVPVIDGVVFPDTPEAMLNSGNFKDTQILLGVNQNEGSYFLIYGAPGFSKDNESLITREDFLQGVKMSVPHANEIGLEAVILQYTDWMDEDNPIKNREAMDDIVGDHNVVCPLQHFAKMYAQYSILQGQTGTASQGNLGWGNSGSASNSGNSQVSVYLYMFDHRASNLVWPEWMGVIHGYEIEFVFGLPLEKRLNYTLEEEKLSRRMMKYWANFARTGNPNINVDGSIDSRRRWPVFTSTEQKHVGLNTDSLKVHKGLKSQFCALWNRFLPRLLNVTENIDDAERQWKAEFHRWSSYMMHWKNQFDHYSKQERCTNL
T1 sequence (P22303 whole entry): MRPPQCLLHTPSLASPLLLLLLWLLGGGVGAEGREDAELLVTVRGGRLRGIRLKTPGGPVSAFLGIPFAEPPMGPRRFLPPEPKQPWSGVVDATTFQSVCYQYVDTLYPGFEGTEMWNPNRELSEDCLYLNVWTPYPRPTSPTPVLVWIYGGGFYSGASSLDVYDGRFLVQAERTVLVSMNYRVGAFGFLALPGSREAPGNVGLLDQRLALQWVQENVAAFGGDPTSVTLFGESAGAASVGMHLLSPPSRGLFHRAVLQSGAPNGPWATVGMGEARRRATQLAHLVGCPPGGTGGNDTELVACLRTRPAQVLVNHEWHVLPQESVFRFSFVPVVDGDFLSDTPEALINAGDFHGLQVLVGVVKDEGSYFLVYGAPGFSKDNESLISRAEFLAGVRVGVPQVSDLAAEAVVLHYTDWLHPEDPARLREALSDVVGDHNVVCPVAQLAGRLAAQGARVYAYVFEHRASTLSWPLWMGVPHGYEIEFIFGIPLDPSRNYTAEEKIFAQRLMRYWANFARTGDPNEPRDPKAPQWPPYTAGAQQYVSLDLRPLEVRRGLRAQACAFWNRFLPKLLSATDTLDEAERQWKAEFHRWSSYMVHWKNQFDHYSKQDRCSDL
T2 sequence (O42275 whole entry): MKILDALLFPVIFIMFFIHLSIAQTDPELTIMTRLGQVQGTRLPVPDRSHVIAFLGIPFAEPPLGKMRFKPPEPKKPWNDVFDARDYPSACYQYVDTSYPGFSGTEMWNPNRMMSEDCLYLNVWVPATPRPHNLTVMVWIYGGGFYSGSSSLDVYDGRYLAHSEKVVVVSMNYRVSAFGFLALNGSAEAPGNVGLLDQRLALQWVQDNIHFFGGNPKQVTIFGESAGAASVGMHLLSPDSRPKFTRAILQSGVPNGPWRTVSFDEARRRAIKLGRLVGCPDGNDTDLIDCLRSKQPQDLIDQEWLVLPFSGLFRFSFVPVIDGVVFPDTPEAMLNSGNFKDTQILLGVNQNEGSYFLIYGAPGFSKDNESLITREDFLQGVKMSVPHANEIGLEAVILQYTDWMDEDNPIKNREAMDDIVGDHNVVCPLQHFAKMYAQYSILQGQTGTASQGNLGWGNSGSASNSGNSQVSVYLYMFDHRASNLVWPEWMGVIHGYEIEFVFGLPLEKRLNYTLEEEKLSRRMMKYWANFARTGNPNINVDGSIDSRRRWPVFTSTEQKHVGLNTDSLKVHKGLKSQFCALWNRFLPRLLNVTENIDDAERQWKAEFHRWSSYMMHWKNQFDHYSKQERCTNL
Sequence of Amyloid-beta precursor protein (Homo sapiens) (P05067 whole entry): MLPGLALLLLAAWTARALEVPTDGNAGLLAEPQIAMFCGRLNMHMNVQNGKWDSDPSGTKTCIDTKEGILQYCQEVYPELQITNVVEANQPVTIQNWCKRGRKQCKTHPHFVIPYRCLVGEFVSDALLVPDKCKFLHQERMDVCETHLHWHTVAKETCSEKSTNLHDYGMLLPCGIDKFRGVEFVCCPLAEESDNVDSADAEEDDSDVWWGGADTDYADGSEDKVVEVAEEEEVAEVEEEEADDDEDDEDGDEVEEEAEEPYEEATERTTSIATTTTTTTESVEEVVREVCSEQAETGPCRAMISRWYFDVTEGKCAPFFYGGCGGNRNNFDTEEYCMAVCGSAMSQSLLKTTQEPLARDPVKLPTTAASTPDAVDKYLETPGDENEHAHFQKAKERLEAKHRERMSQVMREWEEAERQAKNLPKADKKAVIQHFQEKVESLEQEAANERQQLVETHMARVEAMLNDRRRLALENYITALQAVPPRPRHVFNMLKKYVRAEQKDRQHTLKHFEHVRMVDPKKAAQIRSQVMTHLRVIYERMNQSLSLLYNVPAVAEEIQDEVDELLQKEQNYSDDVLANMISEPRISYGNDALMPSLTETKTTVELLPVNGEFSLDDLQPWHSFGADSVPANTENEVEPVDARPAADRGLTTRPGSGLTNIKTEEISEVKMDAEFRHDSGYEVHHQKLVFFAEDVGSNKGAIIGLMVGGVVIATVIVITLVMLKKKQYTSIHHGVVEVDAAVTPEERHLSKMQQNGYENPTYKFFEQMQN
T3 sequence (P06276 whole entry): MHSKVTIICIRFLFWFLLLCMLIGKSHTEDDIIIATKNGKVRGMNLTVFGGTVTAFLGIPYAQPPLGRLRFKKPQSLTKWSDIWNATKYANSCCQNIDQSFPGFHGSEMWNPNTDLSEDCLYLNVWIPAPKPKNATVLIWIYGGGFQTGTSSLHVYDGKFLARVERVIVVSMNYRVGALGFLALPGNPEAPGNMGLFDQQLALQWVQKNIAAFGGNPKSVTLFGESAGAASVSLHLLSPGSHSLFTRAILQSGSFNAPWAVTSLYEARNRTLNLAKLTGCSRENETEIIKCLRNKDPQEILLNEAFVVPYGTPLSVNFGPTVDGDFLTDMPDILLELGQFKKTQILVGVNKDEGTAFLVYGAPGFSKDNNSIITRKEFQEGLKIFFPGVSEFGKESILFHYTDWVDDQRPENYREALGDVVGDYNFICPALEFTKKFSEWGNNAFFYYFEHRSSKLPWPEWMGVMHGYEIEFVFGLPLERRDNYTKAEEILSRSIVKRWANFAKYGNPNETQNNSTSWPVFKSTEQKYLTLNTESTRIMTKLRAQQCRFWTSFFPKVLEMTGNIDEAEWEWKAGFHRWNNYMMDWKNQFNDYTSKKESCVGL
Description for in vitro: Permeability of the compound by BBB-PAMPA

Broadly, the inhibition is the share of the control response that was lost under treatment. What is called IC50 is the concentration needed to halve the response being measured. In series [1], `CCOC(=O)c1ccc2nc(-c3cccnc3)c3c(c2c1)N(Cc1ccccc1)CCC3` came in with an inhibition below 16%. Further, the figures for the IC50 at Acetylcholinesterase [2] and on Acetylcholinesterase [3] were 1060 nM and 1970 nM, respectively.
The Papp is the rate of passage across a membrane or cell layer, normalised by area and donor concentration. In the case of `CCNCc1ccc2nc(-c3cccnc3)c3c(c2c1)NCCC3`, the inhibition in series [1] was below 16%. The concentration for half-maximal inhibition (IC50) on Acetylcholinesterase [2] came to 15800 nM; against Acetylcholinesterase [3], 2150 nM; at Cholinesterase [4] it was 2590 nM. Further, in “in vitro”, the Papp was determined as 2.4 ×10⁻⁶ cm/s.
In “in vitro”, `CCn1cc(C(=O)O)c(=O)c2cc(F)c(N3CCNC(C)C3)c(F)c21` (stereo not drawn) [LOMEFLOXACIN] displayed a Papp of 0.75 ×10⁻⁶ cm/s.
On to `CCOC(=O)c1ccc2nc(-c3ccc(C(=O)OC)cc3)c3c(c2c1)N(Cc1ccccc1)C(=O)CC3`, for which the inhibition is below 16% in series [1], 5.54% against Cholinesterase [5] and 13.8% on Acetylcholinesterase [6]. Further, the IC50 at Acetylcholinesterase [2] is above 25000 nM; at Acetylcholinesterase [3], 13600 nM. Besides, the Papp in the series “in vitro” is 16.8 ×10⁻⁶ cm/s.
In general, Ki refers to a measure of affinity in units of concentration, obtained from inhibition or displacement. Regarding `CCNC(=O)c1ccc2nc(-c3ccc(Cl)cc3)c3c(c2c1)N(Cc1ccccc1)CCC3`, the inhibition is below 16% in series [1], 25.3% on Cholinesterase [5] and 5% in [9]. In addition, the values for the IC50 on Acetylcholinesterase [2] and on Acetylcholinesterase [3] were 801 nM and 5480 nM, respectively. In addition, the inhibition entry on Acetylcholinesterase [7] was “Active”. In the series “in vitro”, the Papp is 7.7 ×10⁻⁶ cm/s. Further, the Ki on Acetylcholinesterase [8] was determined as 785 nM; on Acetylcholinesterase [10], 2340 nM.
For `CCOC(=O)c1ccc2nc(-c3cccnc3)c3c(c2c1)NCCC3`, the inhibition is below 16% in series [1] and 27.5% on Cholinesterase [5]. Besides, the IC50 is 22800 nM on Acetylcholinesterase [2] and 148 nM on Acetylcholinesterase [3]. For the same molecule, in the series “in vitro”, the Papp was found to be 14.6 ×10⁻⁶ cm/s.
As for `CCOC(=O)c1ccc2nc(-c3cccnc3)c3c(c2c1)N(Cc1ccccc1)C(=O)CC3`, the inhibition in [1] is below 16%; against Cholinesterase [5], 4.42%; in series [11], 43.7%. Besides, the IC50 is 13000 nM at Acetylcholinesterase [2] and above 30000 nM against Acetylcholinesterase [3]. This molecule returned a Papp in the series “in vitro” of 12.2 ×10⁻⁶ cm/s.
Take `CCOC(=O)c1ccc2nc(-c3ccc(Cl)cc3)c3c(c2c1)N(Cc1ccc(OC)cc1)CCC3`: the inhibition in series [1] is below 16%; against Cholinesterase [5] it was 12.4%; at Acetylcholinesterase [6] it was 10.2%; in series [11], 33.7%. Besides, the IC50 on Acetylcholinesterase [2] is above 25000 nM; on Acetylcholinesterase [3] it was above 30000 nM. This molecule also yielded a Papp in the series “in vitro” of 26 ×10⁻⁶ cm/s.
Broadly, the Kd is the constant that tells how readily two partners part at equilibrium. Turning to `CCNCc1ccc2nc(-c3ccc(Cl)cc3)c3c(c2c1)N(Cc1ccccc1)CCC3`, the inhibition in [1] is below 16%; in series [13] it was “Dose-dependent effect”. In addition, the IC50 on Acetylcholinesterase [2] came out at 942 nM; at Acetylcholinesterase [3], 147 nM. In series [12], the Activity was 33 µM. Moreover, the Kd at Acetylcholinesterase [14] was found to be 3200 nM.
As to `CCOC(=O)c1ccc2nc(-c3ccc(Cl)cc3)c3c(c2c1)NCCC3`, the inhibition in series [1] is below 16%; on Cholinesterase [5], 20.3%; at Acetylcholinesterase [6], 17.8%. In addition, the IC50 is above 25000 nM at Acetylcholinesterase [2] and 281 nM on Acetylcholinesterase [3]. The molecule further returned a Papp in the series “in vitro” of 9.7 ×10⁻⁶ cm/s.
As for `CCOC(=O)c1ccc2nc(-c3ccc(C(=O)OC)cc3)c3c(c2c1)N(Cc1ccccc1)CCC3`, the inhibition is below 16% in series [1], 6.61% against Cholinesterase [5] and 15.7% at Acetylcholinesterase [6]. The IC50 was above 25000 nM at Acetylcholinesterase [2] and 6620 nM at Acetylcholinesterase [3]. This molecule also showed a Papp in “in vitro” of 9.5 ×10⁻⁶ cm/s.
`CCNCc1ccc2nc(-c3ccc(Cl)cc3)c3c(c2c1)NCCC3`: the inhibition is below 16% in [1] and “Dose-dependent effect” in series [13]. Further, the results for the IC50 at Acetylcholinesterase [2], against Acetylcholinesterase [3] and at Cholinesterase [4] were 556 nM, 532 nM and 1370 nM, respectively. Further, the Activity in series [12] came to 23 µM. The molecule further had a Papp in the series “in vitro” of 5.6 ×10⁻⁶ cm/s. Moreover, at Acetylcholinesterase [14], the Kd worked out at 2180 nM.
Turning to `CCNC(=O)c1ccc2nc(-c3ccc(Cl)cc3)c3c(c2c1)NCCC3`, the inhibition in [1] is below 16%; in series [13], “Dose-dependent effect”. The IC50 is 65 nM at Acetylcholinesterase [2], 46 nM against Acetylcholinesterase [3] and 920 nM against Cholinesterase [4]. Moreover, the Activity in series [12] was 13 µM. Moreover, at Acetylcholinesterase [7], the inhibition entry was “Active”. In the series “in vitro”, this molecule gave a Papp of 22.9 ×10⁻⁶ cm/s. Also, the Ratio IC50 at Acetylcholinesterase [15] amounted to 500; at Acetylcholinesterase [16], 6. For the same molecule, the results for the Ki on Acetylcholinesterase [8] and at Acetylcholinesterase [10] were 65 nM and 73 nM, respectively. Also, the Kd on Acetylcholinesterase [14] was determined as 1760 nM.
In the case of `CCOC(=O)c1ccc2nc(-c3ccc(Cl)cc3)c3c(c2c1)N(Cc1ccccc1)CCC3`, the inhibition in series [1] was below 16%; against Cholinesterase [5], 8.68%; on Acetylcholinesterase [6], 10%. The figures for the IC50 on Acetylcholinesterase [2] and against Acetylcholinesterase [3] were above 25000 nM and 6330 nM, respectively. In the series “in vitro”, the Papp was determined as 8.1 ×10⁻⁶ cm/s.
Consider `CN1C(C(=O)Nc2ccccn2)=C(O)c2ccccc2S1(=O)=O` [PIROXICAM], for which the Papp in “in vitro” amounted to 1.71 ×10⁻⁶ cm/s.
As for `CCOC(=O)c1ccc2nc(-c3ccc(Cl)cc3)c3c(c2c1)N(Cc1ccccc1)C(=O)CC3`, the inhibition in [1] is below 16%; against Cholinesterase [5], 8.41%. In addition, the IC50 on Acetylcholinesterase [2] was 4150 nM; against Acetylcholinesterase [3], 5210 nM. This molecule also showed a Papp in the series “in vitro” of 13.3 ×10⁻⁶ cm/s.
